Activity calls are given as the source filed them. No cut-off for these calls is given here.
What was measured:
[1] = molecular target: T1, Peroxisome proliferator-activated receptor alpha (Homo sapiens) (UniProt Q07869); assay: Agonist activity at PPAR-alpha (unknown origin) expressed in CV-1 cells co-transfected with tk-PPRE-luciferase vector at 10 uM after 24 hrs by transactivation assay relative to GW7647; format: cell-based
T1 sequence (whole entry): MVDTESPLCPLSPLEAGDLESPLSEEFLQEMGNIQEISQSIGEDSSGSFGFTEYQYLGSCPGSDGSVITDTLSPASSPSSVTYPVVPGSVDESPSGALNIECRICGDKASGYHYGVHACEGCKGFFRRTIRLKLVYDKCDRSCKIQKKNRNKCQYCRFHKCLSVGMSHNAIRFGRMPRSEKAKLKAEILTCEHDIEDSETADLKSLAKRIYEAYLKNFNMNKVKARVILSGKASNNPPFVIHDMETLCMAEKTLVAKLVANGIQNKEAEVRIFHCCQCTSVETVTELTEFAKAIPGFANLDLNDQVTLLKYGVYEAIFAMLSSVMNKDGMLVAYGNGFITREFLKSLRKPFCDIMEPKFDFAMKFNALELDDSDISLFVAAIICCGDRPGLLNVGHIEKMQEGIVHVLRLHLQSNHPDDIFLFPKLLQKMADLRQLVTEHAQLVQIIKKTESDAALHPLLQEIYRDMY

[2] = molecular target: T2, Peroxisome proliferator-activated receptor gamma (Homo sapiens) (UniProt P37231); assay: Agonist activity at PPAR-gamma (unknown origin) expressed in CV-1 cells co-transfected with tk-PPRE-luciferase vector at 10 uM after 24 hrs by transactivation assay relative to rosiglitazone; format: cell-based
T2 sequence (whole entry): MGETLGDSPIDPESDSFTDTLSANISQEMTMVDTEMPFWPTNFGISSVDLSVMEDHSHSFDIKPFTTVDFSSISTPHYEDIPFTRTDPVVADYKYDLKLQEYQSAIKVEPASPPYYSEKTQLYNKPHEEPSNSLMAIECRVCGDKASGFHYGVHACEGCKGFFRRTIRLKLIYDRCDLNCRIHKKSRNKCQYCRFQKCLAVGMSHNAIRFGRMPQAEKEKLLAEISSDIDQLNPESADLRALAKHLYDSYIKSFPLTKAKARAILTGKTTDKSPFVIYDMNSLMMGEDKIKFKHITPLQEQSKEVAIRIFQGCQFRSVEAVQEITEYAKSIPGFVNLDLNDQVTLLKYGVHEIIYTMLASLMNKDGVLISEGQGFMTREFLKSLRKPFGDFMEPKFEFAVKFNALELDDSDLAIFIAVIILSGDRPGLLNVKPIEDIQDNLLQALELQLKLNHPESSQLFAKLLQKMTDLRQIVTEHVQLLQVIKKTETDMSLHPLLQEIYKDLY

[3] = molecular target: T3, Peroxisome proliferator-activated receptor delta (Homo sapiens) (UniProt Q03181); assay: Agonist activity at PPAR-delta (unknown origin) expressed in HEK293t cells co-transfected with tk-PPRE-luciferase vector at 10 uM after 24 hrs by transactivation assay relative to GW0742; format: cell-based; conditions: HEK-293T
T3 sequence (whole entry): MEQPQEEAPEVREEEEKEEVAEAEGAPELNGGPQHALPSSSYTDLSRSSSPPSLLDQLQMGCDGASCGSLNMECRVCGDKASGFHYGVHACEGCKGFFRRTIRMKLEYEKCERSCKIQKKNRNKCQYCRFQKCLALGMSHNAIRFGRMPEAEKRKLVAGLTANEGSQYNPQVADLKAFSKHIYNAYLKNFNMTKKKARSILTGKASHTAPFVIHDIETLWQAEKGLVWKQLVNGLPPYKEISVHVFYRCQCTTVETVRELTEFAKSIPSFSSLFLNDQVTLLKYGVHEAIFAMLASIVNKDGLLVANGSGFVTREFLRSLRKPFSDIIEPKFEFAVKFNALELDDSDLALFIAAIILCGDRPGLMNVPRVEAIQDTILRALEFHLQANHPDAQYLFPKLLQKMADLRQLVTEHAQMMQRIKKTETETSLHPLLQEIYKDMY

[4] = Retention time of the compound by HPLC analysis; format: physicochemical

Emax [1] [%] | Emax [2] [%] | Emax [3] | Retention_time [4] [min] | Compound
66.7 | 114 | 76.6% | 7.375 | Cc1ccc(COc2cccc(OCCOc3ccc4[nH]cc(CC(=O)O)c4c3)c2)cc1
34.8 | 122 | 84.8% | 18.802 | O=C(O)Cc1cn(Cc2ccccc2)c2cc(OCCCOc3cccc(OCc4ccc(Cl)cc4)c3)ccc12
37.9 | 120 | 65.2% | 30.169 | CC(C)=CCn1cc(CC(=O)O)c2cc(OCCCOc3cccc(OCc4ccc(Cl)cc4)c3)ccc21
59.5 | 102 | 85.3% | – | O=C(O)Cc1c[nH]c2ccc(OCCCOc3cccc(OCc4ccc(Cl)cc4Cl)c3)cc12
25.9 | 85.2 | 53.2% | 25.922 | O=C(O)Cc1cn(Cc2ccccc2)c2ccc(OCCCOc3cccc(Oc4ccc(C(F)(F)F)cc4)c3)cc12
34 | 99.8 | 88.8% | 25.456 | O=C(O)Cc1cn(Cc2ccccc2)c2ccc(OCCCOc3cccc(Oc4ccc(Cl)cc4)c3)cc12
23.4 | 84.3 | 37.2% | 9.005 | Cc1ccc(COc2cccc(OCCCOc3ccc4c(CC(=O)O)c[nH]c4c3)c2)cc1
28.2 | 100 | 71.9% | 9.707 | O=C(O)Cc1c[nH]c2ccc(OCCCOc3cccc(OCc4ccc(C(F)(F)F)cc4)c3)cc12
45 | 89.7 | 25.6% | 6.53 | COc1ccc(Oc2cccc(OCCCOc3ccc4[nH]cc(CC(=O)O)c4c3)c2)cc1
66.8 | 110 | 77.1% | 21.212 | CCCn1cc(CC(=O)O)c2cc(OCCCOc3cccc(OCc4ccc(Cl)cc4)c3)ccc21
35.8 | 104 | 71.1% | 15.057 | C=CCn1cc(CC(=O)O)c2cc(OCCCOc3cccc(OCc4ccc(Cl)cc4)c3)ccc21
33 | 81.8 | 32.8% | 8.836 | O=C(O)Cc1c[nH]c2cc(OCCCOc3cccc(OCc4ccc(Cl)cc4)c3)ccc12
16.5 | 77.7 | 59.5% | 16.467 | O=C(O)Cc1cn(Cc2ccccc2)c2ccc(OCCCOc3cccc(OCc4ccc(F)cc4)c3)cc12
23.4 | 85.7 | 73.9% | 18.375 | O=C(O)Cc1cn(Cc2ccccc2)c2ccc(OCCOc3cccc(OCc4ccc(C(F)(F)F)cc4)c3)cc12
13.9 | 71.2 | 46.3% | 18.216 | O=C(O)Cc1cn(Cc2ccccc2)c2ccc(OCCCOc3cccc(Oc4ccccc4)c3)cc12
27.1 | 89.2 | 74.9% | 15.313 | O=C(O)Cc1cn(Cc2ccccc2)c2ccc(OCCCOc3ccccc3OCc3ccc(Cl)cc3)cc12
45.4 | 92.5 | 23.8% | 7.305 | O=C(O)Cc1c[nH]c2ccc(OCCCOc3cccc(Oc4ccccc4)c3)cc12
19 | 83.7 | 94.7% | 22.989 | O=C(O)Cc1cn(Cc2ccccc2)c2ccc(OCCCOc3ccc(OCc4ccc(Cl)cc4)cc3)cc12
56.7 | 104 | 63.7% | 9.64 | O=C(O)Cc1c[nH]c2ccc(OCCCOc3cccc(OCc4ccc(Cl)cc4)c3)cc12

Emax [1] [%] | Emax [2] [%] | Emax [3] | Retention_time [4] [min] | Compound
21 | 16.1 | inactive | 7.547 | O=C(O)Cc1c[nH]c2ccc(OCCCOc3ccccc3OCc3ccc(Cl)cc3)cc12
22.3 | 71.1 | 59.5% | 7.257 | COc1ccc(Oc2cccc(OCCCOc3ccc4c(c3)c(CC(=O)O)cn4Cc3ccccc3)c2)cc1
38.5 | 101 | 87.2% | 16.602 | Cc1ccc(COc2cccc(OCCOc3ccc4c(c3)c(CC(=O)O)cn4Cc3ccccc3)c2)cc1
87.5 | 93.4 | 70% | 5.651 | COc1ccc(COc2cccc(OCCOc3ccc4[nH]cc(CC(=O)O)c4c3)c2)cc1
40.7 | 81.2 | 106% | 17.1 | O=C(O)Cc1cn(Cc2ccccc2)c2ccc(OCCOc3cccc(OCc4ccc(Cl)cc4)c3)cc12
18.7 | 102 | 44.2% | – | O=C(O)Cc1cn(Cc2ccccc2)c2ccc(OCCCOc3cccc(OCc4ccc(Cl)cc4Cl)c3)cc12
37.5 | 110 | 70.8% | 13.52 | Cn1cc(CC(=O)O)c2cc(OCCCOc3cccc(OCc4ccc(Cl)cc4)c3)ccc21
60.6 | 145 | 40.6% | 9.409 | Cc1ccc(Oc2cccc(OCCCOc3ccc4[nH]cc(CC(=O)O)c4c3)c2)cc1
43 | 103 | 83% | 7.193 | O=C(O)Cc1c[nH]c2ccc(OCCOc3cccc(OCc4ccc(C(F)(F)F)cc4)c3)cc12
15.3 | 23.6 | 13.7% | 8.911 | O=C(O)Cc1cn(Cc2ccccc2)c2ccc(OCCOc3cccc(Cl)c3)cc12
10.9 | 19.2 | 64.6% | 7.422 | Cc1ccc(COc2ccccc2OCCCOc2ccc3c(CC(=O)O)c[nH]c3c2)cc1
22.6 | 73.1 | 21.7% | 6.379 | O=C(O)Cc1c[nH]c2ccc(OCCCOc3cccc(OCc4ccccc4)c3)cc12
18.9 | 99.4 | 89.5% | 9.166 | O=C(O)Cc1c[nH]c2ccc(OCCCOc3ccc(OCc4ccc(Cl)cc4)cc3)cc12
41.2 | 91.7 | 53.3% | 7.89 | Cc1ccc(COc2ccc(OCCCOc3ccc4[nH]cc(CC(=O)O)c4c3)cc2)cc1
42.8 | 79.6 | 79% | 7.623 | O=C(O)Cc1c[nH]c2ccc(OCCOc3cccc(OCc4ccc(Cl)cc4)c3)cc12
61.1 | 119 | 43.2% | 9.685 | O=C(O)Cc1c[nH]c2ccc(OCCCOc3cccc(Oc4ccc(C(F)(F)F)cc4)c3)cc12
31.4 | 109 | 83% | 21.719 | Cc1ccc(COc2cccc(OCCCOc3ccc4c(c3)c(CC(=O)O)cn4Cc3ccccc3)c2)cc1
25.8 | 66.9 | 32% | 7.106 | O=C(O)Cc1c[nH]c2ccc(OCCCOc3cccc(OCc4ccc(F)cc4)c3)cc12
15.5 | 16.8 | 16.2% | 4.608 | O=C(O)Cc1c[nH]c2ccc(OCCOc3cccc(Cl)c3)cc12
